Source: patent US10154988B2, “Methods and compositions for treating schizophrenia” (The Johns Hopkins University, priority 2012, dated 2018)
Entries after “also recorded” stand apart in the source; their conditions may differ. Like-named read-outs stand apart in the source and are kept apart here.

Key:
[1] = system: DG/CA3 region of aMCI subjects; assay: fMRI activity in DG/CA3 during lure stimuli correctly identified as similar; format: in vivo, human
Procedure: A within-subjects trial of 8 weeks duration, involving 17 amnestic MCI (aMCI) subjects and 17 age-matched controls with a low dose treatment of levetiracetam is conducted. […] Cognitive testing and fMRI imaging data are obtained from the subjects after each two week period of drug/placebo treatment. […] The […]

somatostatin in DG hilus = assay: somatostatin immunohistochemistry, SOM-immunoreactive hilar neuron counts after 4-week levetiracetam; format: in vivo, rat; conditions: 10 mg/kg/day, osmotic minipumps, four weeks; AI-LEV vs Y p=0.679, AI-LEV vs AI-VEH p<0.01
Procedure: Under isoflurane anesthesia, memory-impaired aged rats are implanted subcutaneously in the intrascapular region with osmotic mini-pumps (ALZET,
Durect Corporation, Cupertino, Calif.) with levetiracetam (10 mg/kg/day) or saline vehicle for four weeks prior to perfusion. Young rats, which served as controls, receive either saline vehicle in mini-pumps or no implantation.
At the end of the 4-week treatment period, rats are anesthetized with isoflurane and perfused transcardiacally with 0.1 M phosphate buffer saline, followed by 4% paraformaldehyde in phosphate buffer. Brains are removed and post-fixed in paraformaldehyde overnight. […]
Tissue is labeled with anti-SOM antiserum (Santa Cruz Biotechnology; cat. no. SC7819-P) using an established immunoperoxidase protocol and tissue sections are processed concurrently to minimize inter-replication variability (Haberman et al., 2009). […] The secondary antibody is detected with avidin-biotin complex (ABC Elite; Vector Laboratories Inc., Burlingame, Calif.) and the avidin-biotin complex is visualized with nickel-enhanced diaminobenzadine (Vector Laboratories Inc., Burlingame, Calif.). […]
Interneuron quantification is performed using a Zeiss Axioplan 2 microscope equipped with a motorized stage. […] Neuron counts are analyzed as the total number of hilar interneurons per hippocampal section for each rat.

[2] = levetiracetam blood plasma levels in aMCI patients; format: in vivo; conditions: human
Description: Visit 1: At the end of the first drug/placebo period 2 weeks after the Baseline Visit, the medical, neurological and psychiatric evaluations and cognitive testing are repeated. The subject is also clinically evaluated for suicidal ideation. Blood is drawn again to repeat the standard tests and to determine whether there are any changes related to drug treatment; the subject's blood levetiracetam level is also obtained. All medication that is dispensed at the Baseline Visit (drug or placebo) is collected and subject compliance with the medication regimen is assessed. The first fMRI session (with cognitive tests) is conducted on the same day, either immediately before or immediately after the clinical assessment. Subjects discontinue first period treatment at this visit.
Visit 2: At approximately 2 weeks after the Washout Visit (i.e., 2 weeks after starting the second treatment period), the medical, neurological and psychiatric evaluations and the cognitive testing are repeated. The subject is clinically evaluated for suicidal ideation. Blood is drawn again to repeat the standard tests and to determine whether there are any changes related to drug treatment; the subject's blood levetiracetam level is also obtained. All medication that is dispensed at the Washout Visit is collected and subject compliance with the medication regimen is assessed. The second fMRI session (with cognitive tests) is repeated on the same day, either immediately before or immediately after the clinical assessment.
Visit 2: At approximately 2 weeks after the Washout Visit (i.e., 2 weeks after starting the second treatment period), the medical, neurological and psychiatric evaluations and the cognitive testing are repeated. The subject is clinically evaluated for suicidal ideation. […] All medication being dispensed at the Washout Visit is collected and subject compliance with the medication regimen is assessed. […]
Human – in the human studies described in Examples 3 and 4, a subject's levetiracetam blood plasma level is assessed at each visit. […]

[3] = cited from earlier work

Question: For `CC[C@@H](C(N)=O)N1CCCC1=O` [levetiracetam, (2S)-2-(2-oxopyrrolidin-1-yl) butanamide], which “DG/CA3 hyperactivity (fMRI mean activity)” value ([1]; 125 mg twice a day for two weeks vs placebo, p=0.037) is on record?
Answer: reduces DG/CA3 hyper-activity

Question: And the “DG/CA3 hyperactivity (fMRI mean activity)” value ([1]; 250 mg BID for two weeks vs placebo, N=17)?
Answer: does not significantly reduce; also recorded: No such improvement is observed

Question: And the “levels of somatostatin in DG hilus (SOM-immunoreactive hilar neurons)” value (somatostatin in DG hilus)?
Answer: restores the levels of somatostatin; also recorded: restores sematostatin in DG hilus

Question: What about the concentration at 2 weeks ([2]; 62.5 mg BID cohort (125 mg/day), SEM±0.288, read-out: mean levetiracetam blood plasma level) of the same compound?
Answer: 2880 ng/mL

Question: What about the concentration at 2 weeks ([2]; 125 mg BID cohort (250 mg/day), SEM±0.53, read-out: mean levetiracetam blood plasma level) of the same compound?
Answer: 4400 ng/mL

Question: What about the concentration at 2 weeks ([2]; 250 mg BID cohort (500 mg/day), SEM±0.92, read-out: mean levetiracetam blood plasma level) of the same compound?
Answer: 7900 ng/mL

Question: And the “plasma half-life expected in elderly” value ([3]; elderly, decreased renal function)?
Answer: 9 to 10 h

Question: What about the “time of peak plasma concentrations” value ([3]; following oral administration) of the same compound?
Answer: about 1 hour

Question: What about the plasma half-life ([3]; humans) of the same compound?
Answer: approximately 7±1 hour

Question: What about the “time to steady state” value ([3]; multiple twice-daily dosing) of the same compound?
Answer: 2 days

Question: What about the “absorption after oral administration” value ([3]; oral) of the same compound?
Answer: rapidly and almost completely absorbed

Question: What about the “effect of food on bioavailability” value ([3]; oral) of the same compound?
Answer: not affected by food
